In article PMC11064632, “Tetracyclic homoisoflavanoid (+)-brazilin: a natural product inhibits c-di-AMP-producing enzyme and Streptococcus mutans biofilms” (Microbiology Spectrum, 2024):
Structures can show the parent of a compound that is named as a salt.

Columns and labels:
[1] = biological target: T1, smDAC (S. mutans diadenylate cyclase, CdaA/DacA family) (Streptococcus mutans, UniProt Q8DTC4); test: intrinsic tyrosine fluorescence quenching (modified Stern-Volmer); supported by HPLC enzyme inhibition, IC50 […], Ki […]; type: binding
T1 construct: recombinant smDAC (from 116aa to 265aa)

[2] = biological target: T1, smDAC (S. mutans diadenylate cyclase, CdaA/DacA family); test: biochemical; set-up: HPLC quantification of conversion of ATP into c-di-AMP by recombinant smDAC; details: read-out: Normalized Enzymatic Inhibition (%)
Method: Eleven “hits” were validated using HPLC to eliminate false positives from the coralyne assay. […] (+)-Brazilin (NSC 8661), showing the greatest inhibitory activity, was further studied in a dose-dependent manner. Representative chromatograms of ATP (100 µM) and c-di-AMP (50 µM) standards were used as references to validate retention times (Fig. 3A and B). […] Representative chromatograms of HPLC reactions treated with dose-dependent concentrations were also obtained (Fig. S5). Excitingly, (+)-brazilin inhibited the conversion of ATP into c-di-AMP in a dose-dependent manner with an IC50 value of 25.1 ± 0.98 µM (Fig. 3H; Table S1). […] HPLC was also used to evaluate and compare bromophenol thiohydantoin, suramin, and tannic acid, all reported tmDisA inhibitors, to brazilin and 10% DMSO negative control.

[3] = test system: Nc1ncnc2c1ncn2[C@@H]1O[C@H](COP(=O)(O)OP(=O)(O)OP(=O)(O)O)[C@@H](O)[C@H]1O; test: purified protein; details: Mn2+ substrate-binding site

T1 sequence (Q8DTC4 entry or part of it): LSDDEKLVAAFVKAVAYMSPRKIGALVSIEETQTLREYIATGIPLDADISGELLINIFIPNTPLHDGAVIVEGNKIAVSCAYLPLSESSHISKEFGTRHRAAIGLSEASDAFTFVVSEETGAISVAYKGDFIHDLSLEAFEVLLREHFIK

Compound	inhibition at 50 µM [2]	further results
Oc1ccc2c(c1)OC[C@]1(O)Cc3cc(O)c(O)cc3[C@H]21 [NSC 8661, (+)-brazilin]	77.8%	Kd [1]: 11.9 µM; inhibition at 100 µM [2]: 87.1%
Cc1ccc(C(=O)Nc2ccc(S(=O)(=O)O)c3cc(S(=O)(=O)O)cc(S(=O)(=O)O)c23)cc1NC(=O)c1cccc(NC(=O)Nc2cccc(C(=O)Nc3cc(C(=O)Nc4ccc(S(=O)(=O)O)c5cc(S(=O)(=O)O)cc(S(=O)(=O)O)c45)ccc3C)c2)c1 [suramin hexasodium salt]	1.2%	–
O=C1NC(=S)N/C1=C\c1cc(Br)cc(Br)c1O [bromophenol thiohydantoin]	3.7%	–
smDAC (S. mutans diadenylate cyclase, CdaA/DacA family) (Streptococcus mutans UA159)	–	Km [3]: 93.0 ± 3.98 µM; Vmax [3]: 5.54 µM/min
O=C(OC[C@H]1O[C@@H](OC(=O)c2cc(O)c(O)c(OC(=O)c3cc(O)c(O)c(O)c3)c2)[C@H](OC(=O)c2cc(O)c(O)c(OC(=O)c3cc(O)c(O)c(O)c3)c2)[C@@H](OC(=O)c2cc(O)c(O)c(OC(=O)c3cc(O)c(O)c(O)c3)c2)[C@@H]1OC(=O)c1cc(O)c(O)c(OC(=O)c2cc(O)c(O)c(O)c2)c1)c1cc(O)c(O)c(OC(=O)c2cc(O)c(O)c(O)c2)c1 [tannic acid]	22.2%	–
